Where two headings read alike, the source gives them in different places.
Key:
[1] = test system: Klebsiella pneumoniae expressing VIM-1 (IHMA599644); test: Antibiotic potentiation activity: synergistic concentration (MITC95) with imipenem, OD600 growth; assay type: cell-based; conditions: for Klebsiella pneumoniae expressing VIM-1 (IHMA 599644) MITC95: concentration giving 95% inhibition of bacterial growth
How it was run: (§1)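 Steps: colonies grown overnight at 35 °C; resuspended in saline to OD600 0.11–0.15 by strain; diluted 1:100 into 1.1× CAMHB; imipenem then compound added (antibiotic 4 μg/ml in assay); incubated 35 °C for 22–24 h; absorbance measured.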

[2] = test system: Escherichia coli expressing NDM-1 (CLB30016); test: as above; assay type: cell-based; conditions: for Escherichia coli expressing NDM-1 (CLB 30016) MITC95: concentration giving 95% inhibition of bacterial growth
How it was run: as §1

[3] = test system: Serratia marcescens expressing IMP-1 (CL5741); test: as above; assay type: cell-based; conditions: for Serratia marcescens expressing IMP-1 (CL5741) MITC95: concentration giving 95% inhibition of bacterial growth
How it was run: as §1

[4] = target: NDM-1 (Klebsiella pneumoniae, UniProt C7C422); test: biochemical; assay type: biochemical; conditions: read-out: NDM-1 IC50
[5] = target: IMP-1 (Serratia marcescens, UniProt P52699); test: biochemical; assay type: biochemical; conditions: read-out: IMP-1 IC50
[6] = target: VIM-1 (Pseudomonas aeruginosa (strain ATCC 15692 / DSM 22644 / CIP 104116 / JCM 14847 / LMG 12228 / 1C / PRS 101 / PAO1), UniProt A0A0F7KYQ8); test: Enzyme activity: determination of IC50, fluorescence assay with CCF2-FA substrate (VIM-1); assay type: biochemical
[7] = fluorescence assay with CCF2-FA substrate
[8] = fluorescence assay with CCF2-FA substrate, read-out: VIM-1 IC50
[9] = Klebsiella pneumoniae IHMA599644 (VIM-1), 95% growth inhibition
[10] = (CLB30016, NDM-1), 95% growth inhibition
[11] = Serratia marcescens CL5741 (IMP-1), 95% growth inhibition
[12] = NDM-1 enzyme, CCF2-FA substrate
[13] = IMP-1 enzyme, CCF2-FA substrate
[14] = VIM-1 IC50, VIM-1 enzyme, CCF2-FA substrate
[15] = Klebsiella pneumoniae expressing VIM-1 (IHMA599644), 95% growth inhibition
[16] = Escherichia coli expressing NDM-1 (CLB30016), 95% growth inhibition
[17] = Serratia marcescens expressing IMP-1 (CL5741), 95% growth inhibition
[18] = NDM-1 enzyme, CCF2-FA fluorescence assay
[19] = IMP-1 enzyme, CCF2-FA fluorescence assay
[20] = VIM-1 enzyme, CCF2-FA fluorescence assay, read-out: VIM-1 IC50
[21] = VIM-1 enzyme, CCF2-FA substrate, read-out: VIM-1 IC50

NDM-1, sequence (C7C422 whole entry, looked up, species assumed): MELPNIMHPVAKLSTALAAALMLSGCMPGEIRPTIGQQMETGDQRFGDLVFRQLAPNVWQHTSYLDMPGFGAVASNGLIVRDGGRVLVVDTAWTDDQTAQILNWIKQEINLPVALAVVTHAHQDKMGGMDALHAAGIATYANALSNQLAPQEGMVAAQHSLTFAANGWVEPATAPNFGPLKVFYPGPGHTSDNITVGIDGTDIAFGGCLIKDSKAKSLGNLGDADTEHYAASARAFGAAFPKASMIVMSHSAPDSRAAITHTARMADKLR
IMP-1, sequence (P52699 whole entry, looked up): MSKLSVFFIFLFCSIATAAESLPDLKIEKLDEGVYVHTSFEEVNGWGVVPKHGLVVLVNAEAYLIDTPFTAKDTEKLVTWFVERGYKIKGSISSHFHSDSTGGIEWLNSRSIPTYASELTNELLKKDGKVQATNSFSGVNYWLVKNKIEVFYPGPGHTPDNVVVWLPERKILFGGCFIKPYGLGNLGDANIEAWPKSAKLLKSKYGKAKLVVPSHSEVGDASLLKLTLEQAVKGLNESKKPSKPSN

Row | Structure (SMILES) | Klebsiella pneumoniae MITC95 [1, 9] [µM] | Escherichia coli MITC95 [2, 10] [µM] | Serratia marcescens MITC95 [3, 11] [µM] | IC50 [4, 12] [nM] | IC50 [5, 13] [nM] | Klebsiella pneumoniae MITC95 [1, 15] [µM] | Escherichia coli MITC95 [2, 16] [µM] | Serratia marcescens MITC95 [3, 17] [µM] | IC50 [4, 18] [nM] | IC50 [5, 19] [nM] | IC50 [6, 20] [nM] | also measured
1 | NS(=O)(=O)c1c(C(F)(F)F)ccc(N2CCCC(CCCO)C2)c1-c1nnn[nH]1 (stereo not drawn) [Example 769, 3-[3-(3-hydroxypropyl)piperidin-1-yl]-2-(1H-tetrazol-5-yl)-6-(trifluoromethyl) benzenesulfonamide] |  |  |  |  |  |  |  |  |  |  |  | Klebsiella pneumoniae MITC95 ([1]; IHMA599644 (VIM-1), 95% inhibition of bacterial growth): 50 µM; Escherichia coli MITC95 ([2]; CLB30016 (NDM-1), 95% inhibition of bacterial growth): 100 µM; Serratia marcescens MITC95 ([3]; CL5741 (IMP-1), 95% inhibition of bacterial growth): 25 µM; IC50 [4, 7]: 7.48 nM; IC50 [5, 7]: 11.4 nM; IC50 [6, 8]: 0.998 nM
2 | NS(=O)(=O)c1c(C(F)(F)F)ccc(-c2cccc3cnccc23)c1-c1nn[nH]n1 [Example 515, 3-(Isoquinolin-5-yl)-2-(2H-tetrazol-5-yl)-6-(trifluoromethyl)benzenesulfonamide] | 6.25 | 4.688 | 0.3906 | 0.603 | 3.68 |  |  |  |  |  |  | IC50 [6, 14]: 0.309 nM
3 | NC(=O)Cc1ccc(-c2ccc(C(F)(F)F)c(S(N)(=O)=O)c2-c2nn[nH]n2)cc1 [Example 448, 2-(3′-sulfamoyl-2′-(2H-tetrazol-5-yl)-4′-(trifluoromethyl)-[1,1′-biphenyl]-4-yl)acetamide] |  |  |  |  |  | 6.25 | 3.125 | 0.1953 | 2.1 | 2.17 | 0.962 | 
4 | Nc1ncc2ccc(-c3cccc(S(N)(=O)=O)c3-c3nnn[nH]3)cc2n1 [Example 420, 3-(2-Aminoquinazolin-7-yl)-2-(1H-tetrazol-5-yl)benzenesulfonamide] |  |  |  |  |  | 18.75 | 1.563 | 9.375 | 4.74 | 217 |  | IC50 ([6]; VIM-1 IC50, VIM-1 enzyme, CCF2-FA fluorescence assay): 30.7 nM
5 | Nc1nc2ccc(-c3ccc(C(F)(F)F)c(S(N)(=O)=O)c3-c3nnn[nH]3)cc2s1 [Example 549, 3-(2-amino-1,3-benzothiazol-6-yl)-2-(1H-tetrazol-5-yl)-6-(trifluoromethyl)benzenesulfonamide] | 6.25 | 1.563 | 3.125 | 0.256 | 0.472 |  |  |  |  |  |  | IC50 [6, 14]: 0.0629 nM
6 | NS(=O)(=O)c1nccc(N2CCC(Oc3ncccn3)CC2)c1-c1nnn[nH]1 [Example 231, 4-[4-(pyrimidin-2-yloxy)piperidin-1-yl]-3-(1H-tetrazol-5-yl)pyridine-2-sulfonamide] |  |  |  |  |  |  |  |  |  |  |  | Klebsiella pneumoniae expressing VIM-1 (IHMA 599644) MITC95 [1]: >200 µM; Escherichia coli expressing NDM-1 (CLB 30016) MITC95 [2]: 4.688 µM; Serratia marcescens expressing IMP-1 (CL5741) MITC95 [3]: 18.75 µM; IC50 [4, 7]: 10.8 nM; IC50 [5, 7]: 423 nM; IC50 [6, 8]: 326 nM
7 | NS(=O)(=O)c1c(C(F)(F)F)ccc(-c2ccc(C3CNC3)cc2)c1-c1nn[nH]n1 [Example 433, 4′-(azetidin-3-yl)-2-(2H-tetrazol-5-yl)-4-(trifluoromethyl)-[1,1′-biphenyl]-3-sulfonamide] |  |  |  |  |  | 0.7656 | 0.6406 | 0.1875 | 0.875 | 0.563 | 0.984 | 
8 | CN(C)C1(C)CN(c2ccc(-c3cccc(S(N)(=O)=O)c3-c3nnn[nH]3)cn2)C1 [Example 625, 3-[6-[3-(dimethylamino)-3-methyl-azetidin-1-yl]-3-pyridyl]-2-(1H-tetrazol-5-yl)benzenesulfonamide] | >200 | 2.344 | 12.5 | 37 | 203 |  |  |  |  |  |  | IC50 [6, 21]: 1350 nM
9 | CN(CCO)Cc1ccc(-c2cccc(S(N)(=O)=O)c2-c2nnn[nH]2)cc1 [Example 335, 4′-(((2-hydroxyethyl)(methyl)amino)methyl)-2-(1H-tetrazol-5-yl)-[1,1′-biphenyl]-3-sulfonamide] |  |  |  |  |  | 25 | 0.3906 | 3.125 | 15 | 228 | 227 | 
10 | NS(=O)(=O)c1c(C(F)(F)F)ccc(CC[C@H]2CC[C@H](N)CC2)c1-c1nn[nH]n1 [Example 431, 3-(2-((1r,4s)-4-aminocyclohexyl)ethyl)-2-(2H-tetrazol-5-yl)-6-(trifluoromethyl)benzenesulfonamide] |  |  |  |  |  | 1.531 | 2.563 | 0.125 | 17.9 | 3.75 | 0.432 | 
11 | Cn1cncc1C1CCN(c2ccnc(S(N)(=O)=O)c2-c2nnn[nH]2)CC1 [Example 230, 4-[4-(1-methyl-1H-imidazol-5-yl)piperidin-1-yl]-3-(1H-tetrazol-5-yl)pyridine-2-sulfonamide] |  |  |  |  |  |  |  |  |  |  |  | Klebsiella pneumoniae expressing VIM-1 (IHMA 599644) MITC95 [1]: 37.5 µM; Escherichia coli expressing NDM-1 (CLB 30016) MITC95 [2]: 1.563 µM; Serratia marcescens expressing IMP-1 (CL5741) MITC95 [3]: 18.75 µM; IC50 [4, 7]: 206 nM; IC50 [5, 7]: 797 nM; IC50 ([6]; VIM-1 IC50, fluorescence assay with CCF2-FA substrate): 164 nM
12 | Nc1nc2c(-c3ccc(CC4CNC4)c(S(N)(=O)=O)c3-c3nn[nH]n3)cccc2s1 [Example 545, 3-(2-aminobenzo[d]thiazol-4-yl)-6-(azetidin-3-ylmethyl)-2-(2H-tetrazol-5-yl)benzenesulfonamide] | 3.125 | 0.7813 | 3.125 | 2.72 | 21.8 |  |  |  |  |  |  | IC50 [6, 14]: 7.69 nM
13 | NS(=O)(=O)c1cccc(-c2ccc(CN3CCC(C(=O)O)C3)cc2)c1-c1nnn[nH]1 (stereo not drawn) [Example 343, 1-{[3′-sulfamoyl-2′-(1H-tetrazol-5-yl)biphenyl-4-yl]methyl}pyrrolidine-3-carboxylic acid] |  |  |  |  |  | 100 | 1.563 | 9.375 | 24.7 | 373 | 1180 | 
14 | NS(=O)(=O)c1nccc(N2CCC(N3CCCC3)CC2)c1-c1nnn[nH]1 [Example 222, 4-(4-pyrrolidin-1-ylpiperidin-1-yl)-3-(1H-tetrazol-5-yl)pyridine-2-sulfonamide] |  |  |  |  |  |  |  |  |  |  |  | Klebsiella pneumoniae expressing VIM-1 (IHMA 599644) MITC95 [1]: 12.5 µM; Escherichia coli expressing NDM-1 (CLB 30016) MITC95 [2]: 12.5 µM; Serratia marcescens expressing IMP-1 (CL5741) MITC95 [3]: 75 µM; IC50 [4, 7]: 5150 nM; IC50 [5, 7]: 20000 nM; IC50 [6, 8]: 794 nM
15 | NS(=O)(=O)c1c(C(F)(F)F)ccc(-c2cccc3c[n+]([O-])ccc23)c1-c1nn[nH]n1 [Example 516, 5-(3-Sulfamoyl-2-(2H-tetrazol-5-yl)-4-(trifluoromethyl)phenyl)isoquinoline 2-oxide] | 6.25 | 6.25 | 0.7813 | 2.4 | 12.6 |  |  |  |  |  |  | IC50 [6, 21]: 0.277 nM
16 | NS(=O)(=O)c1nccc(N2CCC3(CC2)NCNC3=O)c1-c1nnn[nH]1 [Example 221, 4-(4-oxo-1,3,8-triazaspiro[4.5]dec-8-yl)-3-(1H-tetrazol-5-yl)pyridine-2-sulfonamide] |  |  |  |  |  |  |  |  |  |  |  | Klebsiella pneumoniae expressing VIM-1 (IHMA 599644) MITC95 [1]: 200 µM; Escherichia coli expressing NDM-1 (CLB 30016) MITC95 [2]: 4.688 µM; Serratia marcescens expressing IMP-1 (CL5741) MITC95 [3]: 100 µM; IC50 [4, 7]: 251 nM; IC50 [5, 7]: 6170 nM; IC50 [6, 8]: 6170 nM
17 | NS(=O)(=O)c1cccc(-c2cnc3ncccn23)c1-c1nnn[nH]1 [Example 647, 3-imidazo[1,2-a]pyrimidin-3-yl-2-(1H-tetrazol-5-yl)benzenesulfonamide] | 6.25 | 0.25 | 18.75 | 14.1 | 618 |  |  |  |  |  |  | IC50 [6, 21]: 83.9 nM
18 | CN1CCC(NCc2ccc(-c3cccc(S(N)(=O)=O)c3-c3nnn[nH]3)cc2)C1 (stereo not drawn) [Example 332, 4′-(((1-methylpyrrolidin-3-yl)amino)methyl)-2-(1H-tetrazol-5-yl)-[1,1′-biphenyl]-3-sulfonamide] |  |  |  |  |  | 100 | 0.5859 | 3.125 | 11.5 | 192 | 554 | 
19 | NS(=O)(=O)c1c(C(F)(F)F)ccc(-c2ccc(C3CCN(C[C@H]4CCCN4)CC3)cc2)c1-c1nnn[nH]1 [Example 675, 4′-{1-[(2R)-pyrrolidin-2-ylmethyl]piperidin-4-yl}-2-(1H-tetrazol-5-yl)-4-(trifluoromethyl)biphenyl-3-sulfonamide] | 150 | 4.688 | 6.25 | 4.53 | 1.94 |  |  |  |  |  |  | IC50 [6, 14]: 14.7 nM

Reference: patent publication US9708336B2, “Metallo-beta-lactamase inhibitors” (priority 2014, dated 2017)
